Experimental data taken from ChEMBL document CHEMBL4229543, “Squaramides as novel class I and IIB histone deacetylase inhibitors for topical treatment of cutaneous t-cell lymphoma” (Bioorg Med Chem Lett, 2018).
≈ marks a conversion by molar mass, not a printed value.

Columns and labels:
[1] = Clearance in human hepatocytes assessed per million cells at 1 uM after 5 to 90 mins by LC-MS/MS analysis; format: ADME, cell-based, Hepatocyte; settings: read-out: CLH
[2] = Solubility in PG/EtOH (96%) at 30 mg/mL after 24 hrs by UV-spectrometric method; format: physicochemical; settings: PG/EtOH (96%)
[3] = Solubility in pH 7.4 phosphate buffer solution at 100 uM after 24 hrs by HPLC method; format: physicochemical
[4] = test system: HuT78; assay: Pro-apoptotic activity in human HUT78 cells after 18 hrs by caspase-Glo 3/7 assay; format: functional, cell-based; settings: HuT78, 18 h
[5] = target: T1, NAD-dependent protein deacetylase sirtuin-1 (Homo sapiens, UniProt Q96EB6); assay: Inhibition of human recombinant SIRT1 using fluorogenic HDAC substrate after 20 mins by fluorimetrc method
T1 sequence (Q96EB6 whole entry): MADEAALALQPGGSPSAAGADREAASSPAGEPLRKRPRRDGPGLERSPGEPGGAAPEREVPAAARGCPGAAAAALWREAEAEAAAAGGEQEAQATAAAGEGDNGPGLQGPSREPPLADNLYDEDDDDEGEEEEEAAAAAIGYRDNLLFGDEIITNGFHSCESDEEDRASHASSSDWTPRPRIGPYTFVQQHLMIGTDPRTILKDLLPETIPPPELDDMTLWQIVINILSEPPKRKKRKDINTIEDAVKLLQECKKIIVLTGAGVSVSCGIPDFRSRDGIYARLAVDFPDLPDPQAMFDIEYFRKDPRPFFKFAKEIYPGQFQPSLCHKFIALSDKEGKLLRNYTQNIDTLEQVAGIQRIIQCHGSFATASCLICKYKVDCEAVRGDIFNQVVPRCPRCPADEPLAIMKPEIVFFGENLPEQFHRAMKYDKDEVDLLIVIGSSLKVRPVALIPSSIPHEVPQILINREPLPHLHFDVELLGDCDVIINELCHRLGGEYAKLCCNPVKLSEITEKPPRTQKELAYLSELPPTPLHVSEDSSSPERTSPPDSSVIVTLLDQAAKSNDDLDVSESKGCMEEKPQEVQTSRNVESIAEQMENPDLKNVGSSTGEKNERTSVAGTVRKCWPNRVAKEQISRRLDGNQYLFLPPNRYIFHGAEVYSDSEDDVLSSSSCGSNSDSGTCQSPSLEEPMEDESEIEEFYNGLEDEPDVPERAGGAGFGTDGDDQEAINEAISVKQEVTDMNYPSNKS

[6] = target: T2, NAD-dependent protein deacetylase sirtuin-2 (Homo sapiens, UniProt Q8IXJ6); assay: Inhibition of human recombinant SIRT2 using fluoro-lysine sirtuin 2 deacetylase substrate after 60 mins by fluorimetrc method
T2 sequence (Q8IXJ6 whole entry): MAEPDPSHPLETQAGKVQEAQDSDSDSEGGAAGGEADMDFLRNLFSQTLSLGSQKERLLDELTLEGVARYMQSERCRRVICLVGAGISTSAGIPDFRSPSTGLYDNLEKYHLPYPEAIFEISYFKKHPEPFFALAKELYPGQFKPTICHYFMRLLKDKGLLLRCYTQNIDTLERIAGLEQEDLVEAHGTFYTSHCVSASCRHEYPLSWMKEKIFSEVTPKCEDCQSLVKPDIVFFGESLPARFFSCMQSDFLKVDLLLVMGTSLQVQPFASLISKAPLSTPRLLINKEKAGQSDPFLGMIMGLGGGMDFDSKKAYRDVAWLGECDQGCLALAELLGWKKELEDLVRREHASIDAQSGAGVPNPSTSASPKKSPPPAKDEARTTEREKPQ

[7] = target: T3, NAD-dependent protein deacetylase sirtuin-3, mitochondrial (Homo sapiens, UniProt Q9NTG7); assay: Inhibition of human recombinant SIRT3 using fluoro-lysine sirtuin 2 deacetylase substrate after 45 mins by fluorimetrc method
T3 sequence (Q9NTG7 whole entry): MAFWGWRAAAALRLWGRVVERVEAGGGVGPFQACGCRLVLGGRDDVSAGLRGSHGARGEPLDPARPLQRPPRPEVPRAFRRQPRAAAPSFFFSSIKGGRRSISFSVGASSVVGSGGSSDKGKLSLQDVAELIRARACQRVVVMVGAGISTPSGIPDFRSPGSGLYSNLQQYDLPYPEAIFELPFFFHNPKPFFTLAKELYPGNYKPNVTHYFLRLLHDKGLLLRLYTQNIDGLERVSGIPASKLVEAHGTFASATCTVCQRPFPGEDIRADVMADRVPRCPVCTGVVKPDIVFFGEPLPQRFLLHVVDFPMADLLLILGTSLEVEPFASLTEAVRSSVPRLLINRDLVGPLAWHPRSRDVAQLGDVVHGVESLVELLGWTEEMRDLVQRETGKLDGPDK

[8] = target: T4, NAD-dependent protein deacetylase sirtuin-7 (Homo sapiens, UniProt Q9NRC8); assay: Inhibition of SIRT7 (unknown origin)
T4 sequence (Q9NRC8 whole entry): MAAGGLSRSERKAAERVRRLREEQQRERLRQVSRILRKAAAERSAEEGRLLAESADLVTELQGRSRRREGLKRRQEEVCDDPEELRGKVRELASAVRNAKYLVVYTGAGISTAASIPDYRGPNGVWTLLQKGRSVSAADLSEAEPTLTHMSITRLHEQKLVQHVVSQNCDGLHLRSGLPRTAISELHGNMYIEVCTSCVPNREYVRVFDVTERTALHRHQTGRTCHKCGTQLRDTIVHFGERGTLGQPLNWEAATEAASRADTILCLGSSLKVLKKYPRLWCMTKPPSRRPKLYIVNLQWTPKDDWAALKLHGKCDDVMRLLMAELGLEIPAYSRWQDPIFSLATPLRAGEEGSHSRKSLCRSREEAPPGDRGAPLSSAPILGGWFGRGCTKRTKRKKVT

[9] = target: Histone deacetylase 5 (Homo sapiens, UniProt Q9UQL6); assay: Inhibition of human recombinant HDAC5 using fluorogenic HDAC substrate class 2a after 30 mins by fluorimetrc method
[10] = target: Histone deacetylase 9 (Homo sapiens, UniProt Q9UKV0); assay: Inhibition of human recombinant HDAC9 using fluorogenic HDAC substrate class 2a after 30 mins by fluorimetrc method
[11] = target: T5, Polyamine deacetylase HDAC10 (Homo sapiens, UniProt Q969S8); assay: Inhibition of human recombinant HDAC10 using fluorogenic HDAC substrate after 45 mins by fluorimetrc method
T5 sequence (Q969S8 whole entry): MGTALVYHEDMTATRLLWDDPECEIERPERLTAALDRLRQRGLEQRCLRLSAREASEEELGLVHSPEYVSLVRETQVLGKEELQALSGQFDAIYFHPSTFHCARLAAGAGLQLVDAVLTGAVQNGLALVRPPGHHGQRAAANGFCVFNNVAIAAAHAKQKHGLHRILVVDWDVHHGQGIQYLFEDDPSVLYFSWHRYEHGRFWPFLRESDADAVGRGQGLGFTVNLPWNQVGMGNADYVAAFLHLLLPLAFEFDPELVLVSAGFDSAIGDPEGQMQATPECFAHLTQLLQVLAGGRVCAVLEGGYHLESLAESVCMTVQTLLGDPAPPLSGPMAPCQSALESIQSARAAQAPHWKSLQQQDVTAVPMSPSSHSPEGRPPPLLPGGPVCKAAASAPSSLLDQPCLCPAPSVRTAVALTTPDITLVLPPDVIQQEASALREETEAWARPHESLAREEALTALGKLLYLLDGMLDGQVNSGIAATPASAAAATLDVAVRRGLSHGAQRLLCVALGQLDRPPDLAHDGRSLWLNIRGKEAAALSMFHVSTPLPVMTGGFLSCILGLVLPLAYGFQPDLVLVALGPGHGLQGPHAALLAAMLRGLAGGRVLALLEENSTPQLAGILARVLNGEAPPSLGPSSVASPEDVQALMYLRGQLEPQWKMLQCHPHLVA

Sequence of Histone deacetylase 5 (Q9UQL6 whole entry): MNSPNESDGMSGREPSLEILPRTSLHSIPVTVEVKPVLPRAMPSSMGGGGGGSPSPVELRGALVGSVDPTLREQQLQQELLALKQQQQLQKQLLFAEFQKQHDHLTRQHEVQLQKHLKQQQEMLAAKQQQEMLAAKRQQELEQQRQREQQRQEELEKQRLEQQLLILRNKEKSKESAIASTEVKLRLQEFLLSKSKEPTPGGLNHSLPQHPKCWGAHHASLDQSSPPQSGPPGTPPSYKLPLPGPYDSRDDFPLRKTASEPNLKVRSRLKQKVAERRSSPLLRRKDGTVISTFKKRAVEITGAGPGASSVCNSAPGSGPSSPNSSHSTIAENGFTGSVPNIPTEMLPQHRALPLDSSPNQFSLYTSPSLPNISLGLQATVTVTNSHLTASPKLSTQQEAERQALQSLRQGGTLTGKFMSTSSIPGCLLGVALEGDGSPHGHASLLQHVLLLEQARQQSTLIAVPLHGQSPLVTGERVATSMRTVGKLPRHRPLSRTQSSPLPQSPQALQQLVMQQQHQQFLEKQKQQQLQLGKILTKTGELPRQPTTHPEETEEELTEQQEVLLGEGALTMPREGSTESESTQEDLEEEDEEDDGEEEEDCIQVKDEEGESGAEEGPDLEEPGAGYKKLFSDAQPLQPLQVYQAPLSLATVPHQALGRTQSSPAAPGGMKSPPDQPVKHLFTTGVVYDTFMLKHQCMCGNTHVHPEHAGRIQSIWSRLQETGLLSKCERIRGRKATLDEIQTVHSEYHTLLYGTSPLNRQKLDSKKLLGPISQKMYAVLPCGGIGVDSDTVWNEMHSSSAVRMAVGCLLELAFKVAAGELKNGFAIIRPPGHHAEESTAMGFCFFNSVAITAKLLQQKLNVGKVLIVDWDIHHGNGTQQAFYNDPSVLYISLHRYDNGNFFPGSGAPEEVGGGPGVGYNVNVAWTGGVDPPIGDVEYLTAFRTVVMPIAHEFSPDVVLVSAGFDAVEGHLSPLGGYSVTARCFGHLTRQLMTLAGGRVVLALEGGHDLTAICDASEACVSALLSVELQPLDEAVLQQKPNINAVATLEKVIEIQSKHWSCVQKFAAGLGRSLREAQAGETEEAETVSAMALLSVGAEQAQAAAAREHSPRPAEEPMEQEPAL
Sequence of Histone deacetylase 9 (Q9UKV0 whole entry): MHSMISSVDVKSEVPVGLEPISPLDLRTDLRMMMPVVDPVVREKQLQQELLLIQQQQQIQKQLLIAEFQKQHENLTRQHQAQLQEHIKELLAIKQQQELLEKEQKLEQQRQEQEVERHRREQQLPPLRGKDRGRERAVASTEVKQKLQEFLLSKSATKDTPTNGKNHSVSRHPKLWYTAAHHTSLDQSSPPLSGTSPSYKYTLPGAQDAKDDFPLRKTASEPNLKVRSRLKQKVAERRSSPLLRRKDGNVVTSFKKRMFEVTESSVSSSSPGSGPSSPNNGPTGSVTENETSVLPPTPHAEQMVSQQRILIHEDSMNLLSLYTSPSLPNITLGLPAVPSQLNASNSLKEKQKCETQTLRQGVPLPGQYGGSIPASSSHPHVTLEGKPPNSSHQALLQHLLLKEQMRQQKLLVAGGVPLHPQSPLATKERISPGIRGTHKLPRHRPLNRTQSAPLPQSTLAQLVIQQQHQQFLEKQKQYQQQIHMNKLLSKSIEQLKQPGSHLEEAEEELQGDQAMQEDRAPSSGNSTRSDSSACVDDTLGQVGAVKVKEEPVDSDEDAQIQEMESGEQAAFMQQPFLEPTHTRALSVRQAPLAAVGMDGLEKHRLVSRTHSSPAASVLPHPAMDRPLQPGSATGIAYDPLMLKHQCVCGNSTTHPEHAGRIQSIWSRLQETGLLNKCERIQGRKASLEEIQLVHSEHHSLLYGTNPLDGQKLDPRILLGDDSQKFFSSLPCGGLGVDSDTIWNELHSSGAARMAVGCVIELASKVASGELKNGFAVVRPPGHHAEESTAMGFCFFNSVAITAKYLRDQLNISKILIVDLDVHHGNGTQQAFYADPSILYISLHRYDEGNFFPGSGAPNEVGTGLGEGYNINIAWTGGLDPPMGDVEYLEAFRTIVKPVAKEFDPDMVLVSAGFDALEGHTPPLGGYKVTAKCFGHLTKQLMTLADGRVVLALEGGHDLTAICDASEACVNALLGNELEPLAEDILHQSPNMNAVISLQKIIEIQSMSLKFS

Row | hepatocyte CLint at 1 µM [1] [µL/min/1e6 cells] | solubility at 24 h [2] [mM] | solubility at 24 h, 100 µM ([3]; phosphate buffer, pH 7.4) [mM] | EC50 [4] [nM] | Ki [5] [nM] | Ki [6] [nM] | Ki [7] [nM] | Ki [8] [nM] | solubility ([3]; buffer, pH 7.4, 24 h, 100 µM) [mM] | Ki [9] [nM] | Ki [10] [nM] | Ki [11] [nM] | Structure (SMILES)
1 | 8.5 | 20 (≈ 6990 µg/mL) | 0.069 (≈ 24.1 µg/mL) | 4.3 | > 10000 | > 10000 | > 10000 | > 10000 |  |  |  |  | Cc1[nH]c2ccccc2c1CCNCc1ccc(/C=C/C(=O)NO)cc1 [PANOBINOSTAT]
2 | 9.8 | 9.1 (≈ 3590 µg/mL) |  | 6.5 | > 10000 | > 10000 | > 10000 | > 10000 | > 0.097 | 4.3 | 5.3 | 4.4 | Cn1cc(CNCC2CCN(c3ncc(C(=O)NO)cn3)CC2)c2ccccc21 [QUISINOSTAT]
